# From US20080318847A1, “Use of Antagonist of Oxytocin and/or Vasopressin in Assisted Reproduction” (Ferring International Center SA, priority 2005, published 2008)
# “Also recorded” adds a separate entry of the source. Bridge positions count the residues as written; N and C are the ends. Square brackets hold non-standard residues; d marks the D form. Peptide text beside a SMILES is read from it. Orn = NCCC[C@H](N)C(=O)O; Mpa = O=C(O)CCS
# Legend:
# [1] = after the initiation of the intravenous infusion; cited from earlier work
# human sperm = experiment: Human Sperm Motility Bioassay (embryotoxicity); format: cell-based
# Method: In order to verify the embryotoxicity of atosiban a study on influence of atosiban on parameters of human sperm motility was performed (Human Sperm Motility Bioassay). The technique used in the study is a standard in the quality control and evaluation of embryotoxicity in IVF laboratories.
# The study was performed on samples of fresh human sperm taken from 15 healthy donors with perfect seminologic parameters. After selecting the alive and motile population (swim-up ascending migration method), sperm samples were transferred to the sterile Eppendorf tubes containing Human Sperm Preparation Medium alone or with atosiban in concentrations of 300 nM, 1000 nM, 3000 nM, last concentrations being 10-fold to maximal concentrations achieved in humans in the course of treatment of preterm labor. Sperm motility assessment was performed with computer assisted sperm analyzer Hobson Sperm Tracker in the 1st, 8th and 24th hour of exposition to atosiban.
# Following parameters were analyzed:
# a) percentage of actively motile sperm cells (Active %); b) percentage of motile sperm cells (Motility %); c) percentage of hyperactively motile sperm cells (Hyper %), d) VSL—straight line velocity, e) VCL—total velocity, f) ALH—amplitude of lateral head displacements. Results are presented at FIG. 2 and FIG. 3. In the statistic analysis, analysis of variance (ANOVA) was applied.
# [2] = tested on: uterine receptivity at the embryo transfer; experiment: Clinical application of atosiban at embryo transfer (IVF-ET): outcome and tolerability; format: in vivo, human
# Source text: Clinical application of medicament containing atosiban—an antagonist of oxytocin and vasopressin for increasing the uterine receptivity at the embryo transfer in the course of assisted reproduction procedure of IVF-ET (in vitro fertilization-embryo transfer).
# In the 8th cycle of the treatment, a decision on application of a medicament containing atosiban (antagonist of oxytocin and vasopressin) was drawn, aiming to improve the uterine receptivity. The medicament was given in intravenous infusion, which started 60 minutes before the transfer and was continued throughout 2 hours after the transfer. 10 minutes before the start of administration (70 minutes before the transfer) transvaginal sonography with 5-minute digital registration of uterine contractions was performed. […] Immediately after, a continuous infusion of 18 mg/hour of atosiban was connected using the infusion pump and was continued throughout the next 60 minutes. 45 minutes after the initiation of the infusion, transvaginal sonography with digital image registration was repeated. Between 55th and 60th minute of infusion, a sonography-guided transfer of 2 embryos was performed. After the transfer, the dosage of atosiban was changed to 6 mg/hour. Infusion was finished 2 hours after the transfer, total dose administered was 37.5 mg.
# The mode of application of atosiban described above provided the maximal effect at the time of embryo transfer (it was proven that stable concentrations of atosiban are reached about an hour after the initiation of the infusion). Patient stayed in horizontal position until an hour after termination of the infusion and limited their activities on that day. At the control visit done 2 weeks after the embryo transfer, a pregnancy test was done with positive result.
# [3] = tested on: uterine contractile activity; experiment: Transvaginal sonography of uterine contractile activity before and during atosiban infusion at embryo transfer (IVF-ET patient); format: in vivo, human
# Method: FIG. 1 presents a graph on uterine contractile activity assessed by transvaginal sonography in patient which case is described in example 1. Uterine contractions on graph B and C are marked with light color for better visualization. In the method of digital image analysis, due to the requirement of a high picture quality, a period of 4 minutes out of total 5 minutes recorded was selected for analysis. • A) Schematic presentation of a principle of non invasive assessment of uterine contractility (done similarly to Fanchin et al. [Hum. Reprod. 1998; 13(7):1968-74]) Description: U—uterus, En—endometrium (the inner layer of the uterus)—during the uterine contractions, changes in texture and contour of endometrium are observed, My—myometrium (the middle layer of uterus, built of smooth muscle tissue), T—testing segment, where movements of contour of endometrium representing the uterine contractile activity are assessed • B) Graph presenting uterine contractile activity before the application of oxytocin antagonist atosiban. Contractile hyperactivity is seen. Legend: ↑—uterine contraction, 1 min—segment representing 1 min of digital recording, T—testing segment, where movements of contour of endometrium reflecting the uterine contractile activity are assessed; C) Graph presenting uterine contractile activity in the time of maximal effect of oxytocin antagonist atosiban. […] Legend: ↑—uterine contraction, 1 min—segment representing 1 min of digital recording, T—testing segment, where movements of contour of endometrium reflecting the uterine contractile activity are assessed
# In the 8th cycle of the treatment, a decision on application of a medicament containing atosiban (antagonist of oxytocin and vasopressin) was drawn, aiming to improve the uterine receptivity. The medicament was given in intravenous infusion, which started 60 minutes before the transfer and was continued throughout 2 hours after the transfer. […]
# [4] = clinical use in preterm labor; cited from earlier work
# [5] = biological target: vasopressin V1a receptors (Homo sapiens, UniProt P37288); details: V1a versus oxytocin receptors; cited from earlier work
# [6] = tested on: uterine contractile activity; details: non pregnant humans, vasopressin administrations VAS-1 to VAS-3; Bossmar et al.; cited from earlier work
# [7] = tested on: human pregnant myometrium; details: cited from earlier work
# [8] = in vivo; cited from earlier work
# [9] = atosiban 300 nM, 1000 nM, 3000 nM, 1st, 8th and 24th hour, ANOVA
# Sequence of vasopressin V1a receptors (P37288 whole entry): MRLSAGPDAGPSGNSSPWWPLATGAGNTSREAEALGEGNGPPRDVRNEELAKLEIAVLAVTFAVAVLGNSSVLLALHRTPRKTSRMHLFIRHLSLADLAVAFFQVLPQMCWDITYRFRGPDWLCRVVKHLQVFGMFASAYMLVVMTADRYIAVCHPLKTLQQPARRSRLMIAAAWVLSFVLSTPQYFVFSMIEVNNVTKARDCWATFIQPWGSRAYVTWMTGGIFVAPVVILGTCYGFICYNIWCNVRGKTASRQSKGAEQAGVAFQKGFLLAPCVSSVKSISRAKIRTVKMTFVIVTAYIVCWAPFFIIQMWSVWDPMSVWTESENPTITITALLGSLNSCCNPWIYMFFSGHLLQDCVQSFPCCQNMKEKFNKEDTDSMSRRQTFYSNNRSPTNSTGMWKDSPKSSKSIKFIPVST
molecule,measurement,setting,value
CCOc1ccc(C[C@H]2NC(=O)CCSSC[C@@H](C(=O)N3CCC[C@H]3C(=O)N[C@@H](CCCN)C(=O)NCC(N)=O)NC(=O)[C@H](CC(N)=O)NC(=O)[C@H]([C@@H](C)O)NC(=O)[C@H]([C@@H](C)CC)NC2=O)cc1 [atosiban] ([Mpa][dY](Et)ITNCP[Orn]G-NH2; disulfide 1-6),time until stable concentrations are reached,[1],about an hour
same,"percentages of actively motile, motile and hyperactively motile sperm (Active %, Motility %, Hyper %) versus control",human sperm; [9],No significant differences
same,"sperm movement parameters (VCL, VSL, ALH) versus control",human sperm; [9],no significant differences
same,"parameters of human sperm motility (Active %, Motility %, Hyper %, VSL, VCL, ALH) versus control samples","human sperm; atosiban 300 nM, 1000 nM, 3000 nM, in vitro, ANOVA",does not inhibit; also recorded: No significant differences
same,embryotoxicity (concluded from sperm motility bioassay),human sperm; atosiban up to 3000 nM,lacks embryotoxic potential; also recorded: lack of embryotoxicity
same,pregnancy test,"[2]; 2 weeks after the embryo transfer, atosiban 6.75 mg bolus, 18 mg/hour then 6 mg/hour i.v.",positive
same,transvaginal sonography finding,[2]; 4 weeks after the transfer,"intrauterine, normal twin pregnancy"
same,adverse reactions,"[2]; bolus dose of 6.75 mg intravenously, 60 minutes before the transfer",no adverse reactions
same,"uterine contractions, method II (digital analysis of displacements of endometrial contour)","[3]; after the administration of atosiban i.v. (stable blood levels), 11 contractions/4 min before administration",7 contractions/4 min
same,"uterine contractions, method I (inspection and manual registration of contractions on an accelerated film sequence)","[3]; after the administration of atosiban i.v. (stable blood levels, 45 minutes after initiation of infusion), 15 contractions/5 min before administration",8 contractions/5 min
same,uterine contractile activity (change versus before atosiban),[3]; time of maximal effect / stable blood levels of atosiban,notably decreased; also recorded: significant reduction
same,side effects,[4],minimal side effects
COc1ccc(S(=O)(=O)N2c3ccc(Cl)cc3[C@](O)(c3ccccc3Cl)[C@@H]2C(=O)N2CCC[C@H]2C(N)=O)cc1OC [relcovaptan],receptor affinity profile,[5],greater affinity towards vasopressin V1a receptors as compared to oxytocin receptors
same,uterine contractility (area under curve of intrauterine pressure) relative to placebo,[6],decreasing the uterine contractility
barusiban,inhibition of contractile activity,[7]; in the range of oxytocin concentrations that occur in humans,total inhibition
same,potency as inhibitor of uterine contractions compared to atosiban,[7]; in vitro,more potent
same,myometrium contractile activity after administration,"[7]; oxytocin stimulated, in vitro, Pierzynski et al.",significantly reduced
same,estimated half time of a single dose,[8],7 h
